# Data reported in PMC12670405, “Second-Generation AURKA-Targeting PROTACs: Structural Optimization toward in Vivo Degradation in Neuroblastoma” (Journal of Medicinal Chemistry, 2025).
# Experiments:
# Assay in all cases: LC-MS/MS proteome profiling
# Format in all cases: cell-based, Homo sapiens
# IMR-32 proteome = system: IMR-32 proteome
# Description: (§1) IMR-32 cells were seeded in T-25 flasks at a density of 1.7 million cells/flask and treated the next day with DMSO (negative control), SK5527 (500 nM) or MK-5108 (500 nM) for 3 or 24 h (data for MK-5108 not discussed in this manuscript). Cell pellets were harvested at the respective time points, lysed, and the concentration of the obtained protein lysates measured as previously described. Details on further sample preparation, LC–MS/MS, and data analysis can be found in the Supporting Information. The LC–MS/MS proteomics data have been deposited to the ProteomeXchange Consortium via the PRIDE partner repository with the data set identifier PXD061539.
# (§2) Supplementary Methods 1 – LC-MS/MS proteomics
# From each sample, 100 µg of protein was isolated, the volumes were equalized with water and SDS and TEAB were added to a final concentration of 5% and 50 mM, respectively. Proteins were reduced and alkylated by addition of 10 mM Tris(2-carboxyethyl)phosphine hydrochloride and 40 mM chloroacetamide and incubation for 30 minutes at 25°C in the dark. Phosphoric acid was added to a final concentration of 1.2%, and samples were subsequently diluted 7-fold with binding buffer containing 90% methanol in 100 mM TEAB, pH 7.55. The samples were loaded on the 96-well S-Trap™ plate (Protifi), placed on top of a deepwell plate, and centrifuged for 2 min at 1,500 x g at RT. […]
# JRKL = system: JRKL; set-up: key to Significant (3h SK5527vs3h DMSO) FDR0 05 / Significant (24h SK5527vs24h DMSO) FDR0 05: +: Statistical significance for differential regulation was set to a false discovery rate (FDR) of < 0.05 and |log2FC| = 2
# Description: as §1, §2
# From each sample, 100 µg of protein was isolated, the volumes were equalized with water and SDS and TEAB were added to a final concentration of 5% and 50 mM, respectively. Proteins were reduced and alkylated by addition of 10 mM Tris(2-carboxyethyl)phosphine hydrochloride and 40 mM chloroacetamide and incubation for 30 minutes at 25°C in the dark. Phosphoric acid was added to a final concentration of 1.2%, and samples were subsequently diluted 7-fold with binding buffer containing 90% methanol in 100 mM TEAB, pH 7.55. The samples were loaded on the 96-well S-Trap™ plate (Protifi), placed on top of a deepwell plate, and centrifuged for 2 min at 1,500 x g at RT. After protein binding, the S-trap™ plate was washed three times by adding 200 µl binding buffer and centrifugation for 2 min at 1,500 x g at RT. A new deepwell receiver plate was placed below the 96-well S-Trap™ plate and 50 mM TEAB containing trypsin (1/100, w/w) was added for digestion overnight at 37°C.
# Using centrifugation for 2 min at 1,500 x g, peptides were eluted in three steps, first with 80 µl 50 mM TEAB, then with 80 µl 0.2% formic acid (FA) in water and finally with 80 µl 0.2% FA in water/acetonitrile (ACN) (50/50, v/v). Eluted peptides were dried completely by vacuum centrifugation.
# Peptides were re-dissolved in 20 µl loading solvent A (0.1% trifluoroacetic acid in water/acetonitrile (ACN) (99.5:0.5, v/v)) of which 2 µl of sample was injected for LC-MS/MS analysis on an Ultimate 3000 ProFlow nanoLC system in-line connected to a Orbitrap Exploris 240 mass spectrometer (Thermo) equipped with pneu-Nimbus dual ion source (Phoenix S&T). Trapping was performed at 20 μl/min for 2 min in loading solvent A on a PepMap™ Neo Trap column (Thermo scientific, 300 μm internal diameter (I.D.), 5 μm beads). The peptides were separated on a 250 mm Odyssey Ultimate, 1.7µm C18, 75 µm inner diameter (Ionopticks) kept at a constant temperature of 45°C. Peptides were eluted by a gradient reaching 26,4 % MS solvent B (0.1% FA in acetonitrile) after 80 min, 44% MS solvent B at 95 min, 56% MS solvent B at 100min followed by a 5-minutes wash at 56% MS solvent B and re-equilibration with MS solvent A (0.1% FA in water). The flow rate was set to 250 nl/min. The mass spectrometer was operated in data-independent mode, automatically switching between MS and MS/MS acquisition. Full-scan MS spectra ranging from 375-1500 m/z with a normalized target value of 300%, a maximum fill time of 25 ms and a resolution at of 60,000 were followed by 30 quadrupole isolations with a precursor isolation width of 10 m/z for HCD fragmentation at an NCE of 30% after filling the trap at a normalized target value of 2000% for maximum injection time of 45 ms. MS2 spectra were acquired at a resolution of 15,000 with a scan range of 200-1800 m/z in the Orbitrap analyser without multiplexing. The isolation intervals were set from 400 – 900 m/z with a width of 10 m/z using window placement optimization. The polydimethylcyclosiloxane background ion at 445.120028 Da was used for internal calibration (lock mass) and QCloud has been used to control instrument longitudinal performance during the project.
# Analysis of the mass spectrometry data was performed in DiaNN (version 1.9). Precursor false discovery rate was […]
# set at 1%. […]
# ZNF286A = settings: SK5527 vs DMSO (24h)
# Description: (§3) Analysis of the mass spectrometry data was performed in DiaNN (version 1.9). Precursor false discovery rate was set at 1%. Spectra were searched against the Homo sapiens protein sequences in the Uniprot database (database release version of 2024_01), containing 20,597 sequences (www.uniprot.org) and the imbedded protein contaminant list. Enzyme specificity was set as C-terminal to arginine and lysine, also allowing cleavage at proline bonds with a maximum of 2 missed cleavages. Variable modifications were set to oxidation of methionine residues and acetylation of protein N-termini while fixed modification was set to carbamidomethylation of cystein residues. Matching between runs was enabled. Mainly default settings were used, except for the addition of a 400-900 m/z precursor mass range filter and MS1 and MS2 mass tolerance was set to 10 and 20 ppm respectively.
# (§4) Further data analysis of the results was performed with an in-house script in the R programming language.
# (§5) Protein expression matrices were prepared as follows: the DIA-NN main report output table was filtered at a precursor and protein library q-value cut-off of 1 % and only proteins identified by at least one proteotypic peptide were retained. After pivoting into a wide format, iBAQ intensity columns were then added to the matrix using the DIAgui’s R package get_IBAQ function. PG MaxLFQ intensities were log2 transformed and replicate samples were grouped. Proteins with less than 3 valid values in at least one group were removed and missing values were imputed from a normal distribution centered around the detection limit (package DEP) leading to a list of 7,759 quantified proteins in the experiment, used for further data analysis. […]
# (§6) Statistical significance for differential regulation was set to a false discovery rate (FDR) of < 0.05 and |log2FC| = 2.
# BAZ2A = settings: SK5527 vs DMSO (24h)
# Description: as §3, §4, §5, §6
# FAM204A = settings: SK5527 vs DMSO (24h)
# Description: as §3, §4, §5, §6
# ZNF770 = settings: SK5527 vs DMSO (24h)
# Description: as §3, §4, §5, §6
# ZNF417 = settings: SK5527 vs DMSO (24h)
# Description: as §3, §4, §5, §6
# MTERF3 = settings: SK5527 vs DMSO (24h)
# Description: as §3, §4, §5, §6
compound,measurement,setting,value
Cc1cc(Nc2ccc(F)c(CC3(C(=O)N4CCC(F)(CN5CCN(c6ccc(N7CCC(=O)NC7=O)cn6)CC5)CC4)CCN(Cc4cccc(Cl)c4F)CC3)n2)n[nH]1 [SK5527],"CRBN neosubstrates (GSPT1, CSNK1A1, ZFP91, SALL4, ZNF654, ZNF787, E4F1, PATZ1) (in words)",IMR-32 proteome; IMR-32,not significantly downregulated
same,degradation selectivity profile (in words),"IMR-32 proteome; IMR-32, 3h of treatment",AURKA as the only significantly downregulated protein
same,Significant (3h SK5527vs3h DMSO) FDR0 05,"JRKL; IMR-32, 3h",+
same,logFC (3h SK5527vs3h DMSO),"JRKL; IMR-32, 3h",5.38
same,Significant (24h SK5527vs24h DMSO) FDR0 05,"JRKL; IMR-32, 24h",+
same,logFC (24h SK5527vs24h DMSO),"JRKL; IMR-32, 24h",3.68
same,logFC JRKL,JRKL; SK5527 vs DMSO (3h),5.38
same,logFC JRKL,JRKL; SK5527 vs DMSO (24h),3.68
same,logFC ZNF286A,ZNF286A,-2.95
same,logFC BAZ2A,BAZ2A,2.83
same,logFC FAM204A,FAM204A,2.65
same,logFC ZNF770,ZNF770,-4
same,logFC ZNF417,ZNF417,-2.12
same,logFC MTERF3,MTERF3,-2.09
